# Values of other authors, collected in US20040175402A1, “Formulation” (priority 2001, published 2004).
# What was measured:
# [1] = tested on: human breast cancer cells; conditions: human breast cancer cells in vitro
compound,measurement,setting,value
"C[C@]12CC[C@@H]3c4ccc(O)cc4C[C@@H](CCCCCCCCC[S+]([O-])CCCC(F)(F)C(F)(F)F)[C@H]3[C@@H]1CC[C@@H]2O (stereo partly drawn) [Fulvestrant, 7α-[9-(4,4,5,5,5-Pentafluoropentylsulphinyl)nonyl]oestra-1,3-5(10)-triene-3,17β-diol]",block of uterotrophic action of oestradiol,mice,blocks completely the uterotrophic action of oestradiol
same,block of uterotrophic action of oestradiol,rats,blocks completely the uterotrophic action of oestradiol
same,block of growth stimulatory action of oestradiol,[1],completely blocks the growth stimulatory action of oestradiol
same,block of uterotrophic action of oestradiol,monkeys,blocks completely the uterotrophic action of oestradiol
